{"source": "patent US11865103B2", "about": "“Methods of treating disorders associated with glycosylation defective proteins” (CASE WESTERN RESERVE UNIVERSITY, priority 2016, dated 2024)", "origin": "cited, not measured here", "tested_on": "TgAC1; Clrn1^N48K/N48K mouse model", "details": "cited from earlier work"}
{"smiles": "CC(C)(O)Cn1nc(-c2ccccc2)c2c(Cl)c(-c3ccccc3)nnc21", "note": "[BF844]", "values": [{"measurement": "Effect on hearing loss", "result": "mitigate hearing loss"}]}
